The record followed here is PubChem BioAssay (NCI).

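All cell lines were grown in 96-well plates and treated with compound for 48 hours. Here, GI50 denotes the concentration required for 50% inhibition of growth. The concentration for full growth arrest is given as TGI.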 Some results are limits rather than exact numbers.

Holding throughout (experiment): NCI tumour cell line growth inhibition, 48 h
In assay [1] the test system is OVCAR-3 ovarian.
For assay [2], the system named is HL-60(TB) leukemia.
The subject of assay [3] is SNB-75 CNS.
The subject of assay [4] is MALME-3M melanoma.
For assay [5], the system named is OVCAR-4 ovarian.
Assay [6] relates to U251 CNS.
For assay [7], the system named is IGROV1 ovarian.
The test system of assay [8] is HS 578T breast.
In assay [9] the test system is SF-539 CNS.
In assay [10] the test system is ACHN renal.

As for `O=C(O)CSc1ncccc1[N+](=O)[O-]`, the TGI in assay [1], in assay [2], in assay [3], in [4], in assay [5] and in assay [6] was > 100 µM each time. The TGI in assay [7], in [8], in assay [9] and in assay [10] was > 100 µM throughout.

Regarding `CCOC(=O)C(/C=N\C(=S)Nc1ccc(OCC)cc1)=C(/O)c1ccccc1`, the TGI in assay [1], in assay [2], in [3], in assay [4], in assay [5] and in assay [6] was > 100 µM each time. Also, the TGI in [7], in [8], in assay [9] and in assay [10] was > 100 µM in each case.

Regarding `COc1cc2nc(-c3ccc(C(F)(F)F)cc3)cc(OCCCN3CCCCC3)c2cc1OC`, the GI50 in [1] was 2.44 µM; in assay [2], 2.91 µM; in assay [3], 1.96 µM; in assay [4], 1.26 µM; in [5], 2.91 µM; in assay [6], 1.1 µM. Further, the GI50 in assay [7] was 0.651 µM; in [8], 2.15 µM; in assay [9], 2.08 µM; in [10] it was 1.2 µM. The TGI came to 15.4 µM in assay [1]; 18.3 µM in assay [2]; 6.86 µM in assay [3]; 4.03 µM in [4]; 31.3 µM in [5]; 14.8 µM in assay [6]. Besides, the TGI in assay [7] was found to be 16 µM; in assay [8] it was 9.94 µM; in assay [9] it was 8.32 µM; in assay [10], 14.4 µM.

Consider `CN(C)C(=O)O[C@@H]1CN[C@@H](C#Cc2cc3ncnc(Nc4ccc(OCc5cccc(F)c5)c(Cl)c4)c3s2)C1`, for which the GI50 is 7.51 µM in [1]; 9.86 µM in assay [2]; > 19.4 µM in assay [3]; 9.41 µM in assay [4]; > 25 µM in assay [5]; > 21.2 µM in assay [6]. Besides, the GI50 in assay [7] is 13.1 µM; in [8], > 25 µM; in [9], 8.58 µM; in assay [10], 18.9 µM. Also, the TGI in [1] is > 25 µM; in assay [2], > 22 µM; in [3] it was > 25 µM; in assay [4], > 25 µM; in assay [5], > 25 µM; in assay [6] it was > 25 µM. In addition, the TGI in assay [7], in assay [8], in assay [9] and in [10] was > 25 µM each time.

For `Cc1nc(C(N)=S)sc1C(=O)C/C(=N/N)C(=O)Nc1cccc(Cl)c1C`, the TGI in assay [1], in assay [2], in assay [3], in assay [4], in [5] and in assay [6] was > 100 µM in each case. Further, the TGI in [7], in assay [8], in assay [9] and in assay [10] was > 100 µM throughout.

For `CCN(CCNc1ccc(C)c2sc3ccccc3c(=O)c12)CC(C)(C)O`, the GI50 was 13.1 µM in assay [1]; 8.9 µM in [2]; 15.7 µM in assay [3]; 17.8 µM in [4]; 21.2 µM in [5]; 5.67 µM in [6]. Also, the GI50 in assay [7] is 13.2 µM; in [8], 11.5 µM; in [9] it was 12.1 µM; in assay [10], 12.3 µM. The TGI in assay [1] is 27.4 µM; in [2], > 35.7 µM; in assay [3] it was 48.6 µM; in assay [4] it was 54.6 µM; in assay [5], > 92.1 µM; in assay [6], 19.4 µM. Moreover, the TGI was 31.5 µM in assay [7], 29.2 µM in assay [8], 25.2 µM in assay [9] and 34.8 µM in [10].

Regarding `COc1cc(S(C)(=O)=O)ccc1Nc1nc2ccc(-c3ccc(NC(=O)[C@H](C)c4ccc(F)cc4)cc3)cn2n1`, the GI50 in assay [1] is > 100 µM; in assay [2], 12.9 µM; in assay [3] it was 47.1 µM; in [4], > 100 µM; in assay [5], > 100 µM; in assay [6], 35.9 µM. The GI50 in assay [7] was > 100 µM; in [8] it was > 63.4 µM; in assay [9], > 39.8 µM; in assay [10], > 83.5 µM. Moreover, the TGI in assay [1], in [2], in assay [3], in assay [4], in assay [5] and in assay [6] was > 100 µM in each case. Further, the TGI in assay [7], in assay [8], in assay [9] and in assay [10] was > 100 µM each time.
